Results on one molecule are retold here after patent publication US12606520B2, “Calpain-2 inhibitor compounds and methods of treatment” (WESTERN UNIVERSITY OF HEALTH SCIENCES, priority 2020, dated 2026).

Common to all, as to type: in vivo
For test [1], the target named is T1, calpain-2 (Rattus norvegicus, UniProt Q07009).
T1 construct: from tissue; host or cells: rat brain after TBI
T1 sequence (Q07009 1-700): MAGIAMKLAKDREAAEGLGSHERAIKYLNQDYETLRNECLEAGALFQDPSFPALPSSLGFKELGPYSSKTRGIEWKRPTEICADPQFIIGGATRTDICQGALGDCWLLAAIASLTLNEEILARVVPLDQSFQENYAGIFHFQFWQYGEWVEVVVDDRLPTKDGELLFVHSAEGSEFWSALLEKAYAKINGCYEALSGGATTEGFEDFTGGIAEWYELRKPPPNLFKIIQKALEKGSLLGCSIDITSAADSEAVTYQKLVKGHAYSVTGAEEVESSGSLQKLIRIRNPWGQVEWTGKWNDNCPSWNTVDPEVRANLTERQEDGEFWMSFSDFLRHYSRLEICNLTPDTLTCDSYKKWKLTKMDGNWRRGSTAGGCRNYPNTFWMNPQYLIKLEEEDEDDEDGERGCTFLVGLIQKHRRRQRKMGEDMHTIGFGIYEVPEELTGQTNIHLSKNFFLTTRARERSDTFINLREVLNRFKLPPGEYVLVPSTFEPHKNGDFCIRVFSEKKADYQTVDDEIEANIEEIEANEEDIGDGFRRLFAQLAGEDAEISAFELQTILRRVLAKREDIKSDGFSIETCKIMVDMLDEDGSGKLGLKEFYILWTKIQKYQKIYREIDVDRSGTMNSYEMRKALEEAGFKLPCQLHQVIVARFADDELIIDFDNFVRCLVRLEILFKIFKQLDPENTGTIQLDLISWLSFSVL
T1 sequence (Q64537 1-270 partner): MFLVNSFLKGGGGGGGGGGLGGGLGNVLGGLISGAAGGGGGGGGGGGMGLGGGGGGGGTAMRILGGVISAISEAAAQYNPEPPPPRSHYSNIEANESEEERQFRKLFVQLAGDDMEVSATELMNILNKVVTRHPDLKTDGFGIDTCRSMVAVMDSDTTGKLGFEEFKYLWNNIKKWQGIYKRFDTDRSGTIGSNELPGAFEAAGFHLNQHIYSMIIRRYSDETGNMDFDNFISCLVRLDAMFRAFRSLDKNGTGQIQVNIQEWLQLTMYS
The test can be described thus: Calpain-2 activity in brain after TBI in rats. The following applies: 1 mg/kg i.p. at 1 h and 8 h after TBI, 24 h after TBI. How it is done:
(§1) We also performed the same model of TBI in male and female mice and in male and female rats. In all cases, NA184 was injected i.p. at 1 mg/kg. For the rat experiments, NA184 was injected twice at 1 h and 8 h after TBI. Animals were sacrificed 24 h after TBI and calpain activity was assayed in brain and cell death was analyzed in cortex. […] In addition, there was a highly significant correlation between calpain-2 activity and cell death in rats (FIG. 23). R^2 was 0.61 and p<0.005.

Test [2] has as its target T2, calpain-1 (Rattus norvegicus, UniProt P97571).
T2 construct: from tissue; host or cells: rat brain after TBI
T2 sequence (P97571 1-713): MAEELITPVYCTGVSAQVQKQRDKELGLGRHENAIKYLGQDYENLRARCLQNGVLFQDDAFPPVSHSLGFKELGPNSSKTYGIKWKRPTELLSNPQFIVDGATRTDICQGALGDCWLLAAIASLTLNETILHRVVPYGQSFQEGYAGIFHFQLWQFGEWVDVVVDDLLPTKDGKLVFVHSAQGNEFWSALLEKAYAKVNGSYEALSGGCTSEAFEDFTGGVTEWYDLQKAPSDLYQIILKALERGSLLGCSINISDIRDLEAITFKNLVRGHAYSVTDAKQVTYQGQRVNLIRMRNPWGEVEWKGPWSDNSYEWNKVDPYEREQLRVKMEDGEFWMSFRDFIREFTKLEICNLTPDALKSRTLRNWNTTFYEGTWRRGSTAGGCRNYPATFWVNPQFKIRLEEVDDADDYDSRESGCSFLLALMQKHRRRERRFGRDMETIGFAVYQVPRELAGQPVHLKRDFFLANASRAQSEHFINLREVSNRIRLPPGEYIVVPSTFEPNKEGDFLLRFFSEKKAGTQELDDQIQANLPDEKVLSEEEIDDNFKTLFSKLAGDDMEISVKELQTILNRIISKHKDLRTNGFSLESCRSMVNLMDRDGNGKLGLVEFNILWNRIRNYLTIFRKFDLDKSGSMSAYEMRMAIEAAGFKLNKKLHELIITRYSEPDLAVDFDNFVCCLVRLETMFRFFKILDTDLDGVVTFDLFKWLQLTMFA
T2 sequence (Q64537 1-270 partner): T1 sequence (Q64537 1-270 partner)
The test can be described thus: Calpain-1 activity in brain after TBI in rats. The following applies: 1 mg/kg i.p. at 1 h and 8 h after TBI, 24 h after TBI. How it is done: as §1

Test [3] deals with cell death in cortex. The test can be described thus: Cell death in cortex 24 h after TBI in rats. The following applies: 1 mg/kg i.p. at 1 h and 8 h after TBI. How it is done:
as §1

In test [4] the target is T3, calpain-1 (Mus musculus, UniProt O35350).
T3 sequence (O35350 1-713): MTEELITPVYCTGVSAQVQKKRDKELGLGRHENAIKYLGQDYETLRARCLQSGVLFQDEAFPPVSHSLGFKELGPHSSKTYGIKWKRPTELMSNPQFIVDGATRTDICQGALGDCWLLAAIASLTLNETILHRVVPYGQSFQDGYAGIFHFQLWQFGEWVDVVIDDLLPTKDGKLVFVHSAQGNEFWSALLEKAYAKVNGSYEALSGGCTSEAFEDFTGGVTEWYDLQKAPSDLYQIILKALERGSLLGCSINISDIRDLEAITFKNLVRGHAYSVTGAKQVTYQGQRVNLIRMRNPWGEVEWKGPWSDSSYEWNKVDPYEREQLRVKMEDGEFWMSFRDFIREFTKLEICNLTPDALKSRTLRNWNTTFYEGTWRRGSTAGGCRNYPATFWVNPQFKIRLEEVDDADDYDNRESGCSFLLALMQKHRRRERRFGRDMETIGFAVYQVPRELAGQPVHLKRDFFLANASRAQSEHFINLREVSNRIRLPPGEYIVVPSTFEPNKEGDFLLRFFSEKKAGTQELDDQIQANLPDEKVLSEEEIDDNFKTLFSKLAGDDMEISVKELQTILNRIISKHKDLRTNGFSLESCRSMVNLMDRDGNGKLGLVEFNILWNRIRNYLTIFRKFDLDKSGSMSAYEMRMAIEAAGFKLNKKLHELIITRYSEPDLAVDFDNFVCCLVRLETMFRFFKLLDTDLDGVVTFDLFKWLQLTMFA
T3 sequence (O88456 1-268 partner): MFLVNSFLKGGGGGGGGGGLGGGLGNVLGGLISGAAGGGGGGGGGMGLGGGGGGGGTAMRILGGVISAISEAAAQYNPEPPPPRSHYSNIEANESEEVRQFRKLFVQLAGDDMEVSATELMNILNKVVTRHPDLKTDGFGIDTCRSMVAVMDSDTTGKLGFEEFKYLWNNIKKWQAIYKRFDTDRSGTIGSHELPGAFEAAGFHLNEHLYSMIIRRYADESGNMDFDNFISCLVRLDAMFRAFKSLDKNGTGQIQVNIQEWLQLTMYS
The test can be described thus: Calpain-1 activity in brain after TBI in mice. Set-up: from tissue; host or cells: mouse brain after TBI. The following applies: 1 mg/kg i.p., 24 h after TBI. How it is done:
as §1

On to `CCC(NC(=O)[C@H](CC(C)C)NC(=O)NCc1ccccc1)C(=O)C(=O)NCc1cccc(Cl)c1OC` (stereo partly drawn) [NA184, (2S)-2-(3-benzylureido)-N-(1-((3-chloro-2-methoxybenzyl)amino)-1,2-dioxopentan-3-yl)-4-methylpentanamide], for which the “Calpain-2 inhibition in brain, male and female rats” value in test [1] is “significantly inhibited calpain-2”. For the same molecule, the “Calpain-1 inhibition in brain, male and female rats” value in test [2] is “not calpain-1”. For the same molecule, the “Cell death in cortex, male and female rats” value in test [3] is reported as “significantly prevented cell death”. Also, in test [4], the “Calpain-1 inhibition in brain, male and female mice” value is “not calpain-1”.
